Test results as given in patent publication US20050113456A1, “Method of decreasing fat deposits and body weight in mammals and birds” (priority 2003, published 2005).
Values joined by “and” are separate entries in the source; they are usually repeats but may differ in a detail not shown here. Identical values can stand only once. Like-named read-outs stand apart in the source and are kept apart here.

Experiments:
Cobb broilers = assay: Safety study in chicken: mortality; format: in vivo; conditions: Day 14 to Day 28, Cobb broilers
Procedure: (§1) Three dietary treatments were used in this clinical study. […] After mixing, the diets were cold pelleted (65° C.).
Feed and water were available ad libitum. […] Mortality was recorded daily.

[1] = Procedure: Three dietary treatments were used in this clinical study. […] Sixty kilograms of each diet was prepared, and the drugs were mixed into the diets according to the standard operating procedures of the test facility. After mixing, the diets were cold pelleted (65° C.). The diets were analyzed for their concentration of test article immediately after the mixing and at predetermined intervals thereafter.
Day-old male broiler (Cobb) chicken were obtained from a commercial hatchery. The birds were raised in battery brooders housed in an environmentally controlled room and they received a commercial broiler starter diet from day 1 to 12. The birds were transferred to grower cages on day 12. On day 14, birds were weighed individually and birds with relatively high or low body weights were discarded. A total of 72 birds (of uniform body weight) were chosen and distributed into test groups so that average weights per test group were nearly equal. […] The diets were fed from day 14 to 28 and the animals were slaughtered on Day 29. Feed and water were available ad libitum. […] Mortality was recorded daily.

[2] = cited from earlier work; for Reduction of fat pad: Rehfeldt et al. 1997
smooth muscle = conditions: Yamaguchi et al. 1996; cited from earlier work
[3] = Reduction of body fat by the isomers of salbutamol; parameters: species or system mammals and birds; conditions: in vivo
[4] = Efficacy study in obese adult mammals; conditions: oral, obese adult animals, preliminary results
[5] = Efficacy study in obese young mammals; conditions: oral, obese young animals, preliminary results
[6] = Efficacy study in chicken: abdominal fat pad and body weight gain; format: in vivo; conditions: for Abdominal fat pad (% BW): day 21 to 42; for Influence on body weight gain (grams): gain during 21 to 42 days of age; for Reduction of fat pads: females; for Decrease of fat pads: males
Procedure: as §1
The birds were transferred to grower cages on day 15 and a commercial broiler finisher diet (18.9% crude protein) was fed. […] Animals (of uniform body weight) were distributed into groups of 24 birds each. (Additional treatment groups than those shown here were used and dosed differently.) Each of the dietary treatments was then randomly assigned to the treatment groups. The diets were fed from day 21 and the animals were slaughtered on Day 42. Feed and water were available ad libitum throughout the study. Body weights were recorded at weekly intervals.

Beta-3 receptor = Beta-3 receptor (Homo sapiens, UniProt P13945); conditions: results obtained from BRIDGE PHARMA, Inc.; read-out: Affinity for receptor (Ki) Beta-3; cited from earlier work
Beta-3 receptor, sequence (P13945 whole entry): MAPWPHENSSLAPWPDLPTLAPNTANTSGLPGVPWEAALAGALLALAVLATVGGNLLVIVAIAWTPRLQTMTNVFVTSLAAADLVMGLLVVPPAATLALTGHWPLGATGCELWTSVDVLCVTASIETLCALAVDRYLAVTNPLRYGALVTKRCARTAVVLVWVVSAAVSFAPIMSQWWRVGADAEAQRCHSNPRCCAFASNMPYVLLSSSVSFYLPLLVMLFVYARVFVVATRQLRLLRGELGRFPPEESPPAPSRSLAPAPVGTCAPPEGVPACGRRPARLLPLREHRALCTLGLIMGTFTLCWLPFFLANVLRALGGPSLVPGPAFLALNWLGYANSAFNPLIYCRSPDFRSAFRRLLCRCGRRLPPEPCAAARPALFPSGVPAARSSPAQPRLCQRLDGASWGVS

[7] = female broilers, 10 ppm in feed

With `CC(C)(C)NCC(O)c1ccc(O)c(CO)c1` (racemic) [RS-salbutamol] the “Mortality (out of 24 birds)” value (Cobb broilers; 10 ppm in feed) was “caused fatalities and 2/24”, the “Tissue drug concentration” value ([1]; racemate-treated animals) was 61.3 ng/g and the “Concentration of total salbutamol in liver” value ([1]; treatment 10 ppm RS-salbutamol in feed, Day 14 to Day 28) was 61.3 ng of drug per g of liver.

In the case of `CC(C)(C)NCC(O)c1cc(Cl)c(N)c(Cl)c1` (racemic) [clenbuterol, 4-amino-α-[(tert-butylamino)methyl]-3,5-dichlorobenzyl alcohol], the “Effect on body weights of broiler chicken” value ([2]; Dalrymple et al. 1984) is listed as “increased”, the “Effect on abdominal fat weight” value ([2]; chicken, Hamano et al. 1998) is listed as “could not find any effect” and the “Reduction of abdominal fat pad” value ([2]; female chicken, Dalrymple et al. 1984) is listed as 8.5%. The “Reduction of fat pad” value ([2]; female chicken) was 8.5%, the “Reduction of abdominal fat pad” value ([2]; male chicken, Dalrymple et al. 1984) was “did not reduce” and the “Reduction of fat pad” value ([2]; male chicken) was 6.0%.

For `CC(C)(C)NC[C@@H](O)c1ccc(O)c(CO)c1` [S-salbutamol], the Smooth muscle hyperreactivity (smooth muscle) is given as “causes smooth muscle hyperreactivity” and the “Reduction of fat content in the bodies of mammals and birds” value [3] is given as “did not reduce fat”.

With “α′[(tert-butylamino) methyl]-4-hydroxy-m-xylene-α,α′-diol [R-salbutamol]” the “Effect on body fat” value [4] was “significantly decreases body fat”, the “Effect on body fat” value [5] was “significantly decreases body fat” and the “Mortality (out of 24 birds)” value (Cobb broilers; 5 ppm in feed) was “no fatalities and 0/24”. For the same compound, the “Abdominal fat pad (% BW)” value ([6]; female broilers, 5 ppm in feed) was 1.79 % BW, the “Influence on body weight gain (grams)” value ([6]; female broilers, 5 ppm in feed) was 1646 grams and the “Abdominal fat pad (% BW)” value [6, 7] was 1.77 % BW. The “Influence on body weight gain (grams)” value [6, 7] was 1614 grams, the “Reduction of fat pads” value ([6]; 5 ppm) was 19.4% and the “Reduction of fat pads” value ([6]; 10 ppm) was 20.3%. For the same compound, the “Abdominal fat pad (% BW)” value ([6]; male broilers, 5 ppm in feed) was 1.64 % BW, the “Influence on body weight gain (grams)” value ([6]; male broilers, 5 ppm in feed) was 1886 grams and the “Abdominal fat pad (% BW)” value ([6]; male broilers, 10 ppm in feed) was 1.63 % BW. For the same compound, the “Influence on body weight gain (grams)” value ([6]; male broilers, 10 ppm in feed) was 1887 grams, the “Decrease of fat pads” value ([6]; 5 ppm) was 17.2% and the “Decrease of fat pads” value ([6]; 10 ppm) was 17.7%. The “Reduction of fat content in the bodies of mammals and birds” value [3] was “potently and stereoselectively reducing the fat content” and the Ki (Beta-3 receptor) was greater than 10 µM.
